Laboratory results published in the Kinase Knowledgebase extract (Sharma et al. 2016).
Values joined by “and” are separate entries in the source; they are usually repeats but may differ in a detail not shown here. Equal entries are not always repeated.

Target: EGFR (Human), P00533 [T790M/L858R]
Conditions: not given

EGFR (Human), P00533 [T790M/L858R], sequence (P00533 whole entry T790M/L858R, looked up): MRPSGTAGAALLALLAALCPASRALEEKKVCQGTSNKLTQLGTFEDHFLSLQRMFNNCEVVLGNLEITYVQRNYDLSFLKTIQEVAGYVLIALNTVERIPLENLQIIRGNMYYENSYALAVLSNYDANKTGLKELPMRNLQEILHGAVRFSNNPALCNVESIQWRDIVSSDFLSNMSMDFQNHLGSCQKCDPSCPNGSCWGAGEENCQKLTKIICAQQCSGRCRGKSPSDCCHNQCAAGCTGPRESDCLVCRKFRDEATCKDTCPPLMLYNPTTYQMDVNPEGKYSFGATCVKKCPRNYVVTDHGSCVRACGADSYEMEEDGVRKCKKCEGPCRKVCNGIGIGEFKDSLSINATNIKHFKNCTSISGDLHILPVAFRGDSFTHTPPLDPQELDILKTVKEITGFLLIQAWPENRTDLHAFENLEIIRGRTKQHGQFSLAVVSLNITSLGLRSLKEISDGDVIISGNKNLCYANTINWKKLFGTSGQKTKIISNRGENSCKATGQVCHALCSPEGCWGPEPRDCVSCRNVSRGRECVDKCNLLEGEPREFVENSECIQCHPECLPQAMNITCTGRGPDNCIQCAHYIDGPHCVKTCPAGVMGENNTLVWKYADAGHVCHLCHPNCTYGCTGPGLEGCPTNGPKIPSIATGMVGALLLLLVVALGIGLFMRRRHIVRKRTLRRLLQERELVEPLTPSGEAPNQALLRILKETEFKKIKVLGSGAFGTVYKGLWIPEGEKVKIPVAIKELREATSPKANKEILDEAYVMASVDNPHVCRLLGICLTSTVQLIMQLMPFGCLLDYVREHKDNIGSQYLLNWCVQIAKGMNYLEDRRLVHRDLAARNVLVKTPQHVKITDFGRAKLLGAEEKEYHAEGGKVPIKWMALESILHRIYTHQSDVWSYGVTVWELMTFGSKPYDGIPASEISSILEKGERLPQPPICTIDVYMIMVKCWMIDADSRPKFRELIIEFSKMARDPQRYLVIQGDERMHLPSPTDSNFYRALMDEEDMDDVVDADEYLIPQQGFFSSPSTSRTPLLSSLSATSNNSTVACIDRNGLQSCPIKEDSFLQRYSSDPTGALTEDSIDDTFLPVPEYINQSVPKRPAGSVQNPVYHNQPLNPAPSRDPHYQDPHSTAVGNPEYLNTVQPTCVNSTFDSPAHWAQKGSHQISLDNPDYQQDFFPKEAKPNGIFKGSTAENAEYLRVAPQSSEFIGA

Structure (SMILES)	IC50 [µM]
CN(C)C/C=C/C(=O)N1CCc2c(sc3ncnc(NCCO)c23)C1	> 10
CN(C)C/C=C/C(=O)N1CCc2c(sc3ncnc(N[C@@H](CO)c4ccccc4)c23)C1	> 10
c1ccc(CNc2ncnc3sc4c(c23)CCCC4)cc1	> 10
CN1CCN(C/C=C/C(=O)N2CCc3c(sc4ncnc(N[C@H](CO)c5ccccc5)c34)C2)CC1	> 10
O=C(/C=C/c1ccccc1)N1CCc2c(sc3ncnc(N[C@H](CO)c4ccccc4)c23)C1	> 10
C=CC(=O)N1CCc2c(sc3ncnc(N[C@@H](CO)c4ccccc4)c23)C1	> 10
CCC(=O)N1CCc2c(sc3ncnc(N[C@H](CO)c4ccccc4)c23)C1	> 10
OC[C@@H](Nc1ncnc2sc3c(c12)CCNC3)c1ccccc1	> 10
OC[C@@H](Nc1ncnc2sc3c(c12)CCCC3)c1ccccc1	> 10

Target: EGFR (human), P00533 [WT]
Sequence (P00533 whole entry, looked up): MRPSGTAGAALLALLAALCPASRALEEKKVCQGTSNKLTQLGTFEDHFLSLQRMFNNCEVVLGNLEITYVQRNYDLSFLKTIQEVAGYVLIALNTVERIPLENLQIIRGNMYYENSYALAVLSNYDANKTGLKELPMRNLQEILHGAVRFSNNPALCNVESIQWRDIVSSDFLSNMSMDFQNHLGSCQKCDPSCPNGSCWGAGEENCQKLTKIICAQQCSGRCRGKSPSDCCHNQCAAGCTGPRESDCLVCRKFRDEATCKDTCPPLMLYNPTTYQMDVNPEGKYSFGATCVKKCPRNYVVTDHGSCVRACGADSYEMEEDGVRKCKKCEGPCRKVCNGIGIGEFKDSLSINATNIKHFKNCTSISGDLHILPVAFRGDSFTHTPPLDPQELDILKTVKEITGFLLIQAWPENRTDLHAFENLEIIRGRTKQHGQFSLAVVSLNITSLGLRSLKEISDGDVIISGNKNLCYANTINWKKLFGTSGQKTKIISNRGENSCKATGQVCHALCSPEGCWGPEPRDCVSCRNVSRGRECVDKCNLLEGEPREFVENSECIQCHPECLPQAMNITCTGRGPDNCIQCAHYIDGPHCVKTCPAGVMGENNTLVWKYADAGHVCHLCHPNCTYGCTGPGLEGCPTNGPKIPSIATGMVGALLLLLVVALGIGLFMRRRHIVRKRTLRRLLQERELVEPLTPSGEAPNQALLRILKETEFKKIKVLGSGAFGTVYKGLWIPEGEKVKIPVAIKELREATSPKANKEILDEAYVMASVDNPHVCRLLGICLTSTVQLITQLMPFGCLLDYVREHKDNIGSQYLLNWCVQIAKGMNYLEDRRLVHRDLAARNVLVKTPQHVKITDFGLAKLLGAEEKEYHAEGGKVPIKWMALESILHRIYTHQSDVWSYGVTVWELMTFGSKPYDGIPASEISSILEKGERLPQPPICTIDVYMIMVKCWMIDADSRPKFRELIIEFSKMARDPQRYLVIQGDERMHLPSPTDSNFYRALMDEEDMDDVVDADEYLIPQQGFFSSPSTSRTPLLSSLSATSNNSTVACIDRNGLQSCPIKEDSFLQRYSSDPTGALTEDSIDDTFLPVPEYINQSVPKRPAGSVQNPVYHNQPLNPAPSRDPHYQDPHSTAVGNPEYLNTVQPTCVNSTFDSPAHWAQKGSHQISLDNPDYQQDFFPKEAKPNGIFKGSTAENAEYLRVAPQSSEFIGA
Conditions: not given

Structure (SMILES)	IC50
c1ccc(CNc2ncnc3sc4c(c23)CCCC4)cc1	2.6 µM
C[C@@H](Nc1ncnc2sc3c(c12)CCCC3)c1ccccc1	3.24 µM
CN(C)C/C=C/C(=O)N1CCc2c(sc3ncnc(N[C@H](CO)c4ccccc4)c23)C1	0.007 µM and 0.006 µM

Target: EGFR (human) (UniProt P00533)
Sequence (P00533 whole entry, looked up): as above
Conditions: hcc827

Structure (SMILES)	IC50 [µM]
c1ccc(CNc2ncnc3sc4c(c23)CCCC4)cc1	> 10
